Assay results from patent US9351515B2, “Nutritional composition and methods of making and using same” (Georgia-Pacific Panel Products LLC, priority 2009, dated 2016).

Test system: green fluorescent protein labeled Salmonella enterica serovar Typhimurium
Test: Adherence of Salmonella to porcine derived IPEC J2 jejunal cells (Example 4)
Format: cell-based
Conditions: bacteria pre-exposed to 0.05M methyl α-D mannoside
Protocol: Porcine derived IPEC J2 jejunal cells were seeded onto 8-well chamber slides. […] The cells were exposed to suspensions containing a green fluorescent protein labeled Salmonella enterica serovar Typhimurium previously exposed for 10 minutes to an equal volume of water or to a suspension containing 17.5 mg Nutritional Composition/ml or 0.05M methyl α-D_mannoside. After the addition of treated or untreated bacteria, the chamber slides were incubated to allow attachment to occur and the wells of each slide were washed. Slides were examined by phase contrast microscopy at 1,000× magnification, and numbers of attached cells of the green fluorescent protein labeled Salmonella enterica serovar Typhimurium were counted on 100 randomly selected IPEC J2 cells.

CO[C@H]1O[C@H](CO)[C@@H](O)[C@H](O)[C@@H]1O [methyl α-D mannoside, methyl α-D-mannoside]
Salmonella binding to the IPEC J2 cells: no effect
